SMILES strings stand for the structures. Bridge positions count the residues as written; N and C are the ends. Square brackets hold non-standard residues; d marks the D form. Peptide text beside a SMILES is read from it. * marks the point of attachment. Bip = N[C@@H](Cc1ccc(-c2ccccc2)cc1)C(=O)O; 4Pal = N[C@@H](Cc1ccncc1)C(=O)O; Carboxymethyl = O=C(O)C*; Orn = NCCC[C@H](N)C(=O)O; Pra = C#CC[C@H](N)C(=O)O; Aun = NCCCCCCCCCCC(=O)O; Dab = NCC[C@H](N)C(=O)O; Dap = NC[C@H](N)C(=O)O; AEEA = NCCOCCOCC(=O)O

This assay deals with T1, PD-1/PD-L1 interaction (PE-labeled human PD-L1-Ig binding to Jurkat cell line over-expressing human PD-1) (Homo sapiens, UniProt Q15116).
T1 construct: expressed in transfected cells; host or cells: Jurkat
T1 sequence (Q15116 25-288): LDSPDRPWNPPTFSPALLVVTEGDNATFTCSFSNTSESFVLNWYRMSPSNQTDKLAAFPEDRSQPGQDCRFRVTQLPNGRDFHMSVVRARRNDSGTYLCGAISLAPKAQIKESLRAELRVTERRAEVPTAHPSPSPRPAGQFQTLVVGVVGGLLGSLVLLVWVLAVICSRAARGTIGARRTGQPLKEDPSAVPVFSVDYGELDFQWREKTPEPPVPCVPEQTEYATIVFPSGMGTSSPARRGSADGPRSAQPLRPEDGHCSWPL
In words: Jurkat-PD-1 Cell Binding High-Content Screening Assay (CBA). The class given is cell-based. The conditions noted are these: Jurkat cell line over-expressing human PD-1; PE-labeled PD-L1-Ig 20 nM final; read-out: Jurkat hPD1-PDL1 IC50. The procedure, abridged:
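Binding of fluorescent PD-L1-Ig (20 nM final) to Jurkat-PD-1 cells was measured by automated imaging after 1 h, following a 2 h compound pre-treatment at 37° C.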
What is called IC50 is the point on the concentration scale where inhibition reaches its midpoint. In the case of `C#CC[C@H](NC(=O)COCCOCCNC(=O)[C@H](CCN)NC(=O)[C@@H]1CSCC(=O)N[C@@H](Cc2ccncc2)C(=O)N[C@@H](Cc2ccc(OCC(=O)O)cc2)C(=O)N[C@@H](CC(=O)O)C(=O)N[C@@H](Cc2c[nH]c3ccccc23)C(=O)N[C@@H](C(C)C)C(=O)N[C@@H](Cc2ccc(-c3ccccc3)cc2)C(=O)N[C@@H]([C@@H](C)CC)C(=O)N[C@@H](CCCN)C(=O)N[C@H](CC(C)C)C(=O)N[C@@H](CCN)C(=O)N[C@@H](CC(C)C)C(=O)N[C@@H](C(C)C)C(=O)N[C@@H]([C@@H](C)O)C(=O)N1)C(=O)N[C@@H](CCCNC(=N)N)C(=O)NCCCCCCCCCCC(=O)O` [Compound 1197] ({CH2CO}-[4Pal]Y(Carboxymethyl)DWV[Bip]I[Orn][dL][Dab]LVTC[Dab][AEEA][Pra]R[Aun]-OH; thioether N-14), the IC50 worked out at 14.8 nM.

As for `C#CC[C@H](NC(=O)COCCOCCNC(=O)[C@H](CCN)NC(=O)[C@@H]1CSCC(=O)N[C@@H](Cc2ccncc2)C(=O)N[C@@H](Cc2ccc(OCC(=O)O)cc2)C(=O)N[C@@H](CC(=O)O)C(=O)N[C@@H](Cc2c[nH]c3ccccc23)C(=O)N[C@@H](C(C)C)C(=O)N[C@@H](Cc2ccc(-c3ccccc3)cc2)C(=O)N[C@@H]([C@@H](C)CC)C(=O)N[C@@H](CCCN)C(=O)N[C@H](CC(C)C)C(=O)N[C@@H](CCN)C(=O)N[C@@H](CC(C)C)C(=O)N[C@@H](C(C)C)C(=O)N[C@@H]([C@@H](C)O)C(=O)N1)C(=O)N[C@@H](Cc1c[nH]cn1)C(=O)NCCCCCCCCCCC(=O)O` [Compound 1198] ({CH2CO}-[4Pal]Y(Carboxymethyl)DWV[Bip]I[Orn][dL][Dab]LVTC[Dab][AEEA][Pra]H[Aun]-OH; thioether N-14), the IC50 turned out to be 15.1 nM.

As for `C#CC[C@H](NC(=O)COCCOCCNC(=O)[C@H](CCCN)NC(=O)[C@@H]1CSCC(=O)N[C@@H](Cc2ccncc2)C(=O)N[C@@H](Cc2ccc(OCC(=O)O)cc2)C(=O)N[C@@H](CC(=O)O)C(=O)N[C@@H](Cc2c[nH]c3ccccc23)C(=O)N[C@@H](C(C)C)C(=O)N[C@@H](Cc2ccc(-c3ccccc3)cc2)C(=O)N[C@@H]([C@@H](C)CC)C(=O)N[C@@H](CCCN)C(=O)N[C@H](CC(C)C)C(=O)N[C@@H](CCN)C(=O)N[C@@H](CC(C)C)C(=O)N[C@@H](C(C)C)C(=O)N[C@@H]([C@@H](C)O)C(=O)N1)C(=O)N[C@@H](CN)C(=O)NCCCCCCCCCCC(=O)O` [Compound 1199] ({CH2CO}-[4Pal]Y(Carboxymethyl)DWV[Bip]I[Orn][dL][Dab]LVTC[Orn][AEEA][Pra][Dap][Aun]-OH; thioether N-14), the IC50 was 13.3 nM.

Take `C#CC[C@H](NC(=O)COCCOCCNC(=O)[C@H](CCCN)NC(=O)[C@@H]1CSCC(=O)N[C@@H](Cc2ccncc2)C(=O)N[C@@H](Cc2ccc(OCC(=O)O)cc2)C(=O)N[C@@H](CC(=O)O)C(=O)N[C@@H](Cc2c[nH]c3ccccc23)C(=O)N[C@@H](C(C)C)C(=O)N[C@@H](Cc2ccc(-c3ccccc3)cc2)C(=O)N[C@@H]([C@@H](C)CC)C(=O)N[C@@H](CCCN)C(=O)N[C@H](CC(C)C)C(=O)N[C@@H](CCN)C(=O)N[C@@H](CC(C)C)C(=O)N[C@@H](C(C)C)C(=O)N[C@@H]([C@@H](C)O)C(=O)N1)C(=O)N[C@@H](CCN)C(=O)NCCCCCCCCCCC(=O)O` [Compound 1200] ({CH2CO}-[4Pal]Y(Carboxymethyl)DWV[Bip]I[Orn][dL][Dab]LVTC[Orn][AEEA][Pra][Dab][Aun]-OH; thioether N-14): the IC50 is 15.6 nM.

Turning to `C#CC[C@H](NC(=O)COCCOCCNC(=O)[C@H](CCCN)NC(=O)[C@@H]1CSCC(=O)N[C@@H](Cc2ccncc2)C(=O)N[C@@H](Cc2ccc(OCC(=O)O)cc2)C(=O)N[C@@H](CC(=O)O)C(=O)N[C@@H](Cc2c[nH]c3ccccc23)C(=O)N[C@@H](C(C)C)C(=O)N[C@@H](Cc2ccc(-c3ccccc3)cc2)C(=O)N[C@@H]([C@@H](C)CC)C(=O)N[C@@H](CCCN)C(=O)N[C@H](CC(C)C)C(=O)N[C@@H](CCN)C(=O)N[C@@H](CC(C)C)C(=O)N[C@@H](C(C)C)C(=O)N[C@@H]([C@@H](C)O)C(=O)N1)C(=O)N[C@@H](CCCN)C(=O)NCCCCCCCCCCC(=O)O` [Compound 1201] ({CH2CO}-[4Pal]Y(Carboxymethyl)DWV[Bip]I[Orn][dL][Dab]LVTC[Orn][AEEA][Pra][Orn][Aun]-OH; thioether N-14), the IC50 was 7.6 nM.

For the compound `C#CC[C@H](NC(=O)COCCOCCNC(=O)[C@H](CCCN)NC(=O)[C@@H]1CSCC(=O)N[C@@H](Cc2ccncc2)C(=O)N[C@@H](Cc2ccc(OCC(=O)O)cc2)C(=O)N[C@@H](CC(=O)O)C(=O)N[C@@H](Cc2c[nH]c3ccccc23)C(=O)N[C@@H](C(C)C)C(=O)N[C@@H](Cc2ccc(-c3ccccc3)cc2)C(=O)N[C@@H]([C@@H](C)CC)C(=O)N[C@@H](CCCN)C(=O)N[C@H](CC(C)C)C(=O)N[C@@H](CCN)C(=O)N[C@@H](CC(C)C)C(=O)N[C@@H](C(C)C)C(=O)N[C@@H]([C@@H](C)O)C(=O)N1)C(=O)N[C@@H](CCCCN)C(=O)NCCCCCCCCCCC(=O)O` [Compound 1202] ({CH2CO}-[4Pal]Y(Carboxymethyl)DWV[Bip]I[Orn][dL][Dab]LVTC[Orn][AEEA][Pra]K[Aun]-OH; thioether N-14), the IC50 was 16.7 nM.

In the case of `C#CC[C@H](NC(=O)COCCOCCNC(=O)[C@H](CCCN)NC(=O)[C@@H]1CSCC(=O)N[C@@H](Cc2ccncc2)C(=O)N[C@@H](Cc2ccc(OCC(=O)O)cc2)C(=O)N[C@@H](CC(=O)O)C(=O)N[C@@H](Cc2c[nH]c3ccccc23)C(=O)N[C@@H](C(C)C)C(=O)N[C@@H](Cc2ccc(-c3ccccc3)cc2)C(=O)N[C@@H]([C@@H](C)CC)C(=O)N[C@@H](CCCN)C(=O)N[C@H](CC(C)C)C(=O)N[C@@H](CCN)C(=O)N[C@@H](CC(C)C)C(=O)N[C@@H](C(C)C)C(=O)N[C@@H]([C@@H](C)O)C(=O)N1)C(=O)N[C@@H](CCCNC(=N)N)C(=O)NCCCCCCCCCCC(=O)O` [Compound 1203] ({CH2CO}-[4Pal]Y(Carboxymethyl)DWV[Bip]I[Orn][dL][Dab]LVTC[Orn][AEEA][Pra]R[Aun]-OH; thioether N-14), the IC50 was 37.4 nM.

As to `C#CC[C@H](NC(=O)COCCOCCNC(=O)[C@H](CCCN)NC(=O)[C@@H]1CSCC(=O)N[C@@H](Cc2ccncc2)C(=O)N[C@@H](Cc2ccc(OCC(=O)O)cc2)C(=O)N[C@@H](CC(=O)O)C(=O)N[C@@H](Cc2c[nH]c3ccccc23)C(=O)N[C@@H](C(C)C)C(=O)N[C@@H](Cc2ccc(-c3ccccc3)cc2)C(=O)N[C@@H]([C@@H](C)CC)C(=O)N[C@@H](CCCN)C(=O)N[C@H](CC(C)C)C(=O)N[C@@H](CCN)C(=O)N[C@@H](CC(C)C)C(=O)N[C@@H](C(C)C)C(=O)N[C@@H]([C@@H](C)O)C(=O)N1)C(=O)N[C@@H](Cc1c[nH]cn1)C(=O)NCCCCCCCCCCC(=O)O` [Compound 1204] ({CH2CO}-[4Pal]Y(Carboxymethyl)DWV[Bip]I[Orn][dL][Dab]LVTC[Orn][AEEA][Pra]H[Aun]-OH; thioether N-14), the IC50 was 9.2 nM.

In the case of `C#CC[C@H](NC(=O)COCCOCCNC(=O)[C@H](CN)NC(=O)[C@@H]1CSCC(=O)N[C@@H](Cc2ccncc2)C(=O)N[C@@H](Cc2ccc(OCC(=O)O)cc2)C(=O)N[C@@H](CC(=O)O)C(=O)N[C@@H](Cc2c[nH]c3ccccc23)C(=O)N[C@@H](C(C)C)C(=O)N[C@@H](Cc2ccc(-c3ccccc3)cc2)C(=O)N[C@@H]([C@@H](C)CC)C(=O)N[C@@H](CCCN)C(=O)N[C@H](CC(C)C)C(=O)N[C@@H](CCN)C(=O)N[C@@H](CC(C)C)C(=O)N[C@@H](C(C)C)C(=O)N[C@@H]([C@@H](C)O)C(=O)N1)C(=O)NCCCCCCCCCCC(=O)O` [Compound 1205] ({CH2CO}-[4Pal]Y(Carboxymethyl)DWV[Bip]I[Orn][dL][Dab]LVTC[Dap][AEEA][Pra][Aun]-OH; thioether N-14), the IC50 was 20 nM.

For `C#CC[C@H](NC(=O)COCCOCCNC(=O)[C@H](CCN)NC(=O)[C@@H]1CSCC(=O)N[C@@H](Cc2ccncc2)C(=O)N[C@@H](Cc2ccc(OCC(=O)O)cc2)C(=O)N[C@@H](CC(=O)O)C(=O)N[C@@H](Cc2c[nH]c3ccccc23)C(=O)N[C@@H](C(C)C)C(=O)N[C@@H](Cc2ccc(-c3ccccc3)cc2)C(=O)N[C@@H]([C@@H](C)CC)C(=O)N[C@@H](CCCN)C(=O)N[C@H](CC(C)C)C(=O)N[C@@H](CCN)C(=O)N[C@@H](CC(C)C)C(=O)N[C@@H](C(C)C)C(=O)N[C@@H]([C@@H](C)O)C(=O)N1)C(=O)NCCCCCCCCCCC(=O)O` [Compound 1206] ({CH2CO}-[4Pal]Y(Carboxymethyl)DWV[Bip]I[Orn][dL][Dab]LVTC[Dab][AEEA][Pra][Aun]-OH; thioether N-14), the IC50 was found to be 19.8 nM.

As for `C#CC[C@H](NC(=O)COCCOCCNC(=O)[C@H](CCCN)NC(=O)[C@@H]1CSCC(=O)N[C@@H](Cc2ccncc2)C(=O)N[C@@H](Cc2ccc(OCC(=O)O)cc2)C(=O)N[C@@H](CC(=O)O)C(=O)N[C@@H](Cc2c[nH]c3ccccc23)C(=O)N[C@@H](C(C)C)C(=O)N[C@@H](Cc2ccc(-c3ccccc3)cc2)C(=O)N[C@@H]([C@@H](C)CC)C(=O)N[C@@H](CCCN)C(=O)N[C@H](CC(C)C)C(=O)N[C@@H](CCN)C(=O)N[C@@H](CC(C)C)C(=O)N[C@@H](C(C)C)C(=O)N[C@@H]([C@@H](C)O)C(=O)N1)C(=O)NCCCCCCCCCCC(=O)O` [Compound 1207] ({CH2CO}-[4Pal]Y(Carboxymethyl)DWV[Bip]I[Orn][dL][Dab]LVTC[Orn][AEEA][Pra][Aun]-OH; thioether N-14), the IC50 is 28.5 nM.

Consider `C#CC[C@H](NC(=O)COCCOCCNC(=O)[C@H](CCCCN)NC(=O)[C@@H]1CSCC(=O)N[C@@H](Cc2ccncc2)C(=O)N[C@@H](Cc2ccc(OCC(=O)O)cc2)C(=O)N[C@@H](CC(=O)O)C(=O)N[C@@H](Cc2c[nH]c3ccccc23)C(=O)N[C@@H](C(C)C)C(=O)N[C@@H](Cc2ccc(-c3ccccc3)cc2)C(=O)N[C@@H]([C@@H](C)CC)C(=O)N[C@@H](CCCN)C(=O)N[C@H](CC(C)C)C(=O)N[C@@H](CCN)C(=O)N[C@@H](CC(C)C)C(=O)N[C@@H](C(C)C)C(=O)N[C@@H]([C@@H](C)O)C(=O)N1)C(=O)NCCCCCCCCCCC(=O)O` [Compound 1208] ({CH2CO}-[4Pal]Y(Carboxymethyl)DWV[Bip]I[Orn][dL][Dab]LVTCK[AEEA][Pra][Aun]-OH; thioether N-14), for which the IC50 is 26.9 nM.

Values taken from patent publication US20260022142A1, “MACROCYCLIC IMMUNOMODULATORS” (Bristol-Myers Squibb Company, priority 2022, published 2026).
